Test results taken from US20080044493A1, “Agent For Ameliorating The Maximum Passage Time Through Digestive Tract, Agent For Ameliorating Passage Time Through Digestive Tract And Preventive For Colon Cancer” (priority 2004, published 2008).

Key:
feces = conditions: 3 g a day; statistically significant; cited from earlier work
[1] = tested on: healthy subject (1 person) not suffering from constipation; experiment: Test Example 1: transit time through the digestive tract by radio-opaque markers, with fecal weight and defecation frequency; format: in vivo, human; conditions: for Maximum Transit Time through Digestive Tract (average) / Transit Time through Digestive Tract (average): Standard Deviation in parentheses
From the text: The method proposed by Hinton et al. was invented to measure the time required from food ingestion to defecation, namely, transit time through the digestive tract. More specifically, a plurality of radio-opaque markers were taken with a meal, and the time required from food ingestion to defecation (ti) and the number of markers contained in the evacuated feces (xi) were inspected based on x-ray images of the collected feces, followed by calculation of transit time through the digestive tract using the following formula. Transit time through the digestive tract indicates an average time required for a plurality of radio-opaque markers taken simultaneously to be evacuated. [formula]
A test sample in a dose shown in Table 1, together with 15 markers, were administered per day with meals to a healthy subject (1 person) not suffering from constipation, and the markers in the feces of the subject were identified thereafter. Test samples were administered for 3 days, and during which the transit times through the digestive tract of 5 or 6 meals were measured. Transit time through the digestive tract calculated by the above formula after each meal and the time required for the last marker to be evacuated (maximum transit time through the digestive tract) were recorded. […] Statistical treatment was performed using t-tests. In addition to the marker identification, the fecal weight and defecation frequency were recorded, and daily average fecal weight and defecation frequency were calculated, and shown in Table 1.

5 subjects = conditions: liquid preparation 2.4 g per 100 ml, 70 ml (974 mg in terms of magnesium) a day; cited from earlier work

For OC[C@H]1O[C@@H](O[C@@H]2[C@@H](CO)OC(O)(CO)[C@H]2O)[C@H](O)[C@@H](O)[C@H]1O (mixture of isomers) [Lactulose], the “Azoreductase activity in feces” value (feces) is listed as “lowered azoreductase activity”, the “Nitroreductase activity in feces” value (feces) is listed as “lowered nitroreductase activity” and the “Number of the Bifidobacterium in feces” value (feces) is listed as “increased number of the Bifidobacterium”. For the same compound, the “Putrefactive metabolites in feces” value (feces) was “reduced putrefactive metabolites”, the “β-glucuronidase activity in feces” value (feces) was “lowered β-glucuronidase activity” and the “Average Defecation Frequency” value ([1]; Dose/Day 1 g) was 1.8 times/day. For the same compound, the “Average Fecal Weight” value ([1]; Dose/Day 1 g) was 315 g/day, the “Maximum Transit Time through Digestive Tract (average)” value ([1]; Dose/Day 1 g) was 34.4 (9.4) hour and the “Transit Time through Digestive Tract (average)” value ([1]; Dose/Day 1 g) was 21.8 (3.1) hour.
In the case of OC[C@H]1O[C@H](OC[C@H]2O[C@H](O[C@]3(CO)O[C@H](CO)[C@@H](O)[C@@H]3O)[C@H](O)[C@@H](O)[C@@H]2O)[C@H](O)[C@@H](O)[C@H]1O [Raffinose], the “Average Defecation Frequency” value ([1]; Dose/Day 2 g) is reported as 2.3 times/day, the “Average Fecal Weight” value ([1]; Dose/Day 2 g) is reported as 243 g/day and the “Maximum Transit Time through Digestive Tract (average)” value ([1]; Dose/Day 2 g) is reported as 31.0 (11.5) hour. The “Transit Time through Digestive Tract (average)” value ([1]; Dose/Day 2 g) was 22.2 (2.5) hour.
For [O]=[Mg] [activated magnesium oxide], the Cathartic drug effect (5 subjects) is listed as “its cathartic drug effect was shown”.
With O=S(=O)([O-])[O-].[Mg+2] [Magnesium Sulfate] the “Average Defecation Frequency” value ([1]; Dose/Day 4.5 g) was 2.3 times/day, the “Average Fecal Weight” value ([1]; Dose/Day 4.5 g) was 389 g/day and the “Maximum Transit Time through Digestive Tract (average)” value ([1]; Dose/Day 4.5 g) was 35.8 (10.1) hour. For the same compound, the “Transit Time through Digestive Tract (average)” value ([1]; Dose/Day 4.5 g) was 20.2 (2.4) hour and the Cathartic effects ([1]; compared with magnesium oxide) was “stronger cathartic effects than magnesium oxide”.
With OC[C@H]1O[C@@H](O[C@H]2[C@H](O)[C@@H](O)[C@@H](O[C@]3(CO)O[C@H](CO)[C@@H](O)[C@@H]3O)O[C@@H]2CO)[C@H](O)[C@@H](O)[C@H]1O [Lactosucrose] the “Average Defecation Frequency” value ([1]; Dose/Day 1.5 g) was 2.0 times/day, the “Average Fecal Weight” value ([1]; Dose/Day 1.5 g) was 267 g/day and the “Maximum Transit Time through Digestive Tract (average)” value ([1]; Dose/Day 1.5 g) was 31.3 (8.6) hour. The “Transit Time through Digestive Tract (average)” value ([1]; Dose/Day 1.5 g) was 19.7 (3.5) hour.
In the case of [O]=[Mg] [Magnesium Oxide], the “Transit time and maximum transit time through the digestive tract (in words)” value ([1]; 0.17 to 1.5 g a day, in comparison with no administration (control)) is reported as “shortened transit time and maximum transit time through the digestive tract were observed”, the “Average fecal weight (in words)” value ([1]; 1.0 to 1.5 g intake a day) is reported as “more than doubled” and the Loose stools ([1]; 1.0 to 1.5 g intake a day) is reported as “caused loose stools having high a moisture content”. For the same compound, the “Average Defecation Frequency” value ([1]; Dose/Day 0.17 g) was 2.3 times/day, the “Average Fecal Weight” value ([1]; Dose/Day 0.17 g) was 274 g/day and the “Maximum Transit Time through Digestive Tract (average)” value ([1]; Dose/Day 0.17 g) was 38.1 (10.1) hour. The “Transit Time through Digestive Tract (average)” value ([1]; Dose/Day 0.17 g) was 20.6 (4.1) hour, the “Average Defecation Frequency” value ([1]; Dose/Day 0.35 g) was 2.0 times/day and the “Average Fecal Weight” value ([1]; Dose/Day 0.35 g) was 204 g/day. For the same compound, the “Maximum Transit Time through Digestive Tract (average)” value ([1]; Dose/Day 0.35 g) was 32.4 (7.6) hour, the “Transit Time through Digestive Tract (average)” value ([1]; Dose/Day 0.35 g) was 17.5 (3.1) hour and the “Average Defecation Frequency” value ([1]; Dose/Day 0.50 g) was 2.3 times/day. For the same compound, the “Average Fecal Weight” value ([1]; Dose/Day 0.50 g) was 313 g/day, the “Maximum Transit Time through Digestive Tract (average)” value ([1]; Dose/Day 0.50 g) was 35.6 (6.9) hour and the “Transit Time through Digestive Tract (average)” value ([1]; Dose/Day 0.50 g) was 21.6 (6.8) hour. The “Average Defecation Frequency” value ([1]; Dose/Day 0.75 g) was 2.3 times/day, the “Average Fecal Weight” value ([1]; Dose/Day 0.75 g) was 235 g/day and the “Maximum Transit Time through Digestive Tract (average)” value ([1]; Dose/Day 0.75 g) was 34.9 (7.2) hour. For the same compound, the “Transit Time through Digestive Tract (average)” value ([1]; Dose/Day 0.75 g) was 21.0 (4.3) hour, the “Average Defecation Frequency” value ([1]; Dose/Day 1.0 g) was 2.0 times/day and the “Average Fecal Weight” value ([1]; Dose/Day 1.0 g) was 414 g/day. For the same compound, the “Maximum Transit Time through Digestive Tract (average)” value ([1]; Dose/Day 1.0 g) was 37.1 (8.2) hour, the “Transit Time through Digestive Tract (average)” value ([1]; Dose/Day 1.0 g) was 22.9 (2.8) hour and the “Average Defecation Frequency” value ([1]; Dose/Day 1.5 g) was 2.3 times/day. For the same compound, the “Average Fecal Weight” value ([1]; Dose/Day 1.5 g) was 426 g/day, the “Maximum Transit Time through Digestive Tract (average)” value ([1]; Dose/Day 1.5 g) was 35.6 (6.4) hour and the “Transit Time through Digestive Tract (average)” value ([1]; Dose/Day 1.5 g) was 19.5 (1.9) hour. The Loose stools ([1]; up to 0.75 g intake a day) was “loose stools were not caused”.
